Test results published in patent publication US11459325B2, “Heterocyclic compound” (Takeda Pharmaceutical Company Limited, priority 2018, dated 2022).

Tested on: GBA mutant human fibroblasts GM008760
Test: Glucosylceramide lowering assay
Assay type: cell-based
Conditions: Homo sapiens, Fibroblast, 96 h; 10 μM test compound, 4 days culture; GlcCer (C16:0)/Cer (C16:0) molar ratio of test compound group relative to DMSO control group x100; smaller value = glucosylceramide lowering
Procedure: Glucosylceramide Lowering Assay
Using GBA mutant human fibroblasts containing mutated glucosylceramidase, the effect of test compounds on glucosylceramide reduction was evaluated.
GBA mutant human fibroblasts GM008760 (Coriel Institute) were seeded in a 96-well multiwell plate at a density of 5,000 cells/100 μL culture solution/well. GlutaMAX (Thermo Fishcer Scientific), penicillin-streptomycin, and Minimum Essential Media (Thermo Fishcer Scientific) supplemented with 15% fetal bovine serum were used as a culture solution. After culturing for 2 days, a 10 mM DMSO solution of the test compound diluted with the culture solution was added to a 96-well plate by 100 μL to adjust a final test compound concentration to 10 μM. After culturing the cells for 4 days in the presence of the test compound, the culture solution was removed, and the cells adhered to the 96-well plate were washed with a phosphate buffer (ThermoFisher Scientific, product number 14190-144). A solvent composed of 50% ethanol and 50% isopropanol was added to the 96-well plate by 100 μL, and the intracellular lipids were dissolved by pipetting. A solution prepared by dissolving N-Octadecanoyl-D35-psychosine (50 ng/mL, Matreya LLC Inc.) as an internal standard in 50% ethanol and 50% isopropanol was added to the sample in an equal volume, and 2.5 μL of the centrifuged supernatant was used as the test compound group.
In the same manner as above, a control group was prepared by using DMSO instead of the 10 mM DMSO solution of the test compound.
For the test compound group and the control group, molar concentrations of glucosylceramide [GlcCer (C16:0)] and ceramide [Cer (C16:0)] were quantified using Rapidfire-MS/MS (API-5000, Turbo-ESI, SRM), and the glucosylceramide lowering effect of the test compound group relative to the control group was evaluated by the following formula. (GlcCer/Cer of test compound group)/(GlcCer/Cer of control group)×100 wherein GlcCer/Cer is the ratio of the molar concentration of glucosylceramide to that of ceramide.
In this test, when the numerical value obtained by the above calculation formula is small, glucosylceramide is metabolized to ceramide by the test compound, or the synthesis of glucosylceramide from ceramide is inhibited by the test compound, that is, it can be said that the test compound has a glucosylceramide lowering effect.

SMILES | activity at 10 µM [%]
Cc1cn(C)c(=O)c2c(C(=O)N[C@H]3CCC[C@@H]3c3ccccc3)cn(C)c12 (racemic) [Example 110, 1,5,7-trimethyl-4-oxo-N-[rac-(1S,2R)-2-phenylcyclopentyl]-4,5-dihydro-1H-pyrrolo[3,2-c]pyridine-3-carboxamide] | 58
Cc1cn(C)c(=O)c2c(C(=O)N[C@H]3CCC[C@H]3c3ccccc3)cn(C)c12 (racemic) [Example 111, 1,5,7-trimethyl-4-oxo-N-[rac-(1S,2S)-2-phenylcyclopentyl]-4,5-dihydro-1H-pyrrolo[3,2-c]pyridine-3-carboxamide] | 61
Cc1cn(C)c(=O)c2c(C(=O)N[C@H]3CCCC[C@@H]3c3ccccc3)cn(C)c12 (racemic) [Example 112, 1,5,7-trimethyl-4-oxo-N-[rac-(1S,2R)-2-phenylcyclohexyl]-4,5-dihydro-1H-pyrrolo[3,2-c]pyridine-3-carboxamide] | 61
Cc1cn(C)c(=O)c2c(C(=O)N[C@H]3CCCC[C@H]3c3ccccc3)cn(C)c12 (racemic) [Example 113, 1,5,7-trimethyl-4-oxo-N-[rac-(1S,2S)-2-phenylcyclohexyl]-4,5-dihydro-1H-pyrrolo[3,2-c]pyridine-3-carboxamide] | 41
Cc1cn(C)c(=O)c2c(C(=O)N[C@H]3CCC[C@H](c4ccccc4)C3)cn(C)c12 (racemic) [Example 114, 1,5,7-trimethyl-4-oxo-N-[rac-(1S,3S)-3-phenylcyclohexyl]-4,5-dihydro-1H-pyrrolo[3,2-c]pyridine-3-carboxamide] | 58
CCCCO[C@H]1CC[C@H](NC(=O)c2cn(C)c3c(C)cn(C)c(=O)c23)CC1 [Example 2, N-(trans-4-butoxycyclohexyl)-1,5,7-trimethyl-4-oxo-4,5-dihydro-1H-pyrrolo[3,2-c]pyridine-3-carboxamide] | 87
Cc1cn(C)c(=O)c2c(C(=O)NC3CCC(c4ccccc4)CC3)cn(C)c12 (stereo not drawn) [Example 21, 1,5,7-trimethyl-4-oxo-N-(4-phenylcyclohexyl)-4,5-dihydro-1H-pyrrolo[3,2-c]pyridine-3-carboxamide] | 67
COc1cc(NC(=O)c2cn(C)c3c(C)cn(C)c(=O)c23)ccn1 [Example 36, N-(2-methoxypyridin-4-yl)-1,5,7-trimethyl-4-oxo-4,5-dihydro-1H-pyrrolo[3,2-c] pyridine-3-carboxamide] | 65
COc1ccnc(NC(=O)c2cn(C)c3c(C)cn(C)c(=O)c23)c1 [Example 37, N-(4-methoxypyridin-2-yl)-1,5,7-trimethyl-4-oxo-4,5-dihydro-1H-pyrrolo[3,2-c] pyridine-3-carboxamide] | 68
Cc1cn(C)c(=O)c2c(C(=O)Nc3ccc(C#N)cn3)cn(C)c12 [Example 40, N-(5-cyanopyridin-2-yl)-1,5,7-trimethyl-4-oxo-4,5-dihydro-1H-pyrrolo[3,2-c]pyridine-3-carboxamide] | 62
CCCCOC1CCCC(NC(=O)c2cn(C)c3c(C)cn(C)c(=O)c23)C1 (stereo not drawn) [Example 57, N-(3-butoxycyclohexyl)-1,5,7-trimethyl-4-oxo-4,5-dihydro-1H-pyrrolo[3,2-c]pyridine-3-carboxamide] | 65
Cc1cn(C)c(=O)c2c(C(=O)N3CCC(c4ccc(Cl)cc4)C3)cn(C)c12 (stereo not drawn) [Example 71, 3-((3-(4-chlorophenyl)pyrrolidin-1-yl)carbonyl)-1,5,7-trimethyl-1,5-dihydro-4H-pyrrolo[3,2-c]pyridin-4-one] | 68
Cc1cn(C)c(=O)c2c(C(=O)N3CC4CC4(c4ccc(Cl)cc4)C3)cn(C)c12 (stereo not drawn) [Example 72, 3-((1-(4-chlorophenyl)-3-azabicyclo[3.1.0]hex-3-yl)carbonyl)-1,5,7-trimethyl-1,5-dihydro-4H-pyrrolo[3,2-c]pyridin-4-one] | 38
Cc1cn(C)c(=O)c2c(C(=O)N3CCC3c3ccccc3)cn(C)c12 (stereo not drawn) [Example 83, 1,5,7-trimethyl-3-((2-phenylazetidin-1-yl)carbonyl)-1,5-dihydro-4H-pyrrolo[3,2-c]pyridin-4-one] | 49
COc1ccccc1-n1cc(C)c2c(c(C(=O)NC3CCCCC3)cn2C)c1=O [Example 107, N-cyclohexyl-5-(2-methoxyphenyl)-1,7-dimethyl-4-oxo-4,5-dihydro-1H-pyrrolo[3,2-c]pyridine-3-carboxamide] | 50
COc1ccccc1-n1cc(C)c2c(c(C(=O)Nc3ccccc3)cn2C)c1=O [Example 108, 5-(2-methoxyphenyl)-1,7-dimethyl-4-oxo-N-phenyl-4,5-dihydro-1H-pyrrolo[3,2-c]pyridine-3-carboxamide] | 67
Cc1cn(C)c(=O)c2c(C(=O)N3CC4CC4(c4cccc(Cl)c4)C3)cn(C)c12 (stereo not drawn) [Example 118, 3-((1-(3-chlorophenyl)-3-azabicyclo[3.1.0]hex-3-yl)carbonyl)-1,5,7-trimethyl-1,5-dihydro-4H-pyrrolo[3,2-c]pyridin-4-one] | 59
Cc1cn(C)c(=O)c2c(C(=O)N3CC4CC4(c4ccc(Cl)c(Cl)c4)C3)cn(C)c12 (stereo not drawn) [Example 120, 3-((1-(3,4-dichlorophenyl)-3-azabicyclo[3.1.0]hex-3-yl)carbonyl)-1,5,7-trimethyl-1,5-dihydro-4H-pyrrolo[3,2-c]pyridin-4-one] | 50
Cc1cn(C)c(=O)c2c(C(=O)N3CC4CC4(c4cccc(Cl)c4Cl)C3)cn(C)c12 (stereo not drawn) [Example 121, 3-((1-(2,3-dichlorophenyl)-3-azabicyclo[3.1.0]hex-3-yl)carbonyl)-1,5,7-trimethyl-1,5-dihydro-4H-pyrrolo[3,2-c]pyridin-4-one] | 68
Cc1cn(C)c(=O)c2c(C(=O)N3CC4CC4(c4cc(Cl)cc(Cl)c4)C3)cn(C)c12 (stereo not drawn) [Example 122, 3-((1-(3,5-dichlorophenyl)-3-azabicyclo[3.1.0]hex-3-yl)carbonyl)-1,5,7-trimethyl-1,5-dihydro-4H-pyrrolo[3,2-c]pyridin-4-one] | 54
Cc1cn(C)c(=O)c2c(C(=O)N3CC4CC4(c4cc(Cl)ccc4Cl)C3)cn(C)c12 (stereo not drawn) [Example 123, 3-((1-(2,5-dichlorophenyl)-3-azabicyclo[3.1.0]hex-3-yl)carbonyl)-1,5,7-trimethyl-1,5-dihydro-4H-pyrrolo[3,2-c]pyridin-4-one] | 47
Cc1cn(C)c(=O)c2c(C(=O)N3CC4CC4(c4ccc(F)cc4)C3)cn(C)c12 (stereo not drawn) [Example 124, 3-((1-(4-fluorophenyl)-3-azabicyclo[3.1.0]hex-3-yl)carbonyl)-1,5,7-trimethyl-1,5-dihydro-4H-pyrrolo[3,2-c]pyridin-4-one] | 56
Cc1cn(C)c(=O)c2c(C(=O)N3CC4CC4(c4ccccc4F)C3)cn(C)c12 (stereo not drawn) [Example 126, 3-((1-(2-fluorophenyl)-3-azabicyclo[3.1.0]hex-3-yl)carbonyl)-1,5,7-trimethyl-1,5-dihydro-4H-pyrrolo[3,2-c]pyridin-4-one] | 61
COc1ccc(C23CC2CN(C(=O)c2cn(C)c4c(C)cn(C)c(=O)c24)C3)cc1 (stereo not drawn) [Example 127, 3-((1-(4-methoxyphenyl)-3-azabicyclo[3.1.0]hex-3-yl)carbonyl)-1,5,7-trimethyl-1,5-dihydro-4H-pyrrolo[3,2-c]pyridin-4-one] | 65
